The record followed here is patent US20250186474A1 (CHINA CHEMICAL & PHARMACEUTICAL CO., LTD., priority 2023, published 2025).

A short description of data set [1]: Stress test of compositions with different EIDD-1931 concentrations (60° C., 7 and 14 days). It is filed as physicochemical. To be noted: API. The procedure:
Therefore, the concentration of EIDD-1931 was adjusted, and another stress test was conducted to evaluate how the resulting drugs degrade in 7 and 14 days.

Data set [2] is described as follows: Solubility / precipitation in the pharmaceutical solution composition. It is filed as physicochemical. The conditions noted are these: drug prepared with 20 mg/ml.

Turning to `O=c1nc(NO)ccn1[C@@H]1O[C@H](CO)[C@@H](O)[C@H]1O` [EIDD-1931, β-D-N4-hydroxycytidine], in data set [1], the Single-impurity percentage is 0.01/0.01% and the total-impurity percentage is listed as 0.01/0.01%. Besides, the Theoretical value in data set [1] (impurity test) is on record as 93.25%. For the same compound, the precipitation result in data set [2] was “had precipitation issues”.
